Laboratory results as given in US6984754B1, “Aliphatic amino carboxylic and amino phosphonic acids amino nitriles and amino tetrazoles as cellular rescue agents” (University of Saskatchewan Technologies Inc., priority 1998, dated 2006).

Assays:
[1] = system: cerebellar granule cells (CGC); assay: Antiapoptotic capacity (rescue) in cerebellar granule cells induced into apoptosis by cytosine arabinoside (CGC assay); format: cell-based, Wistar rat
From the text: In Vitro Protocol for Assessing the Antiapoptotic Capacity of Various Compounds in Cerebellar Granule Cells
Cultures of cerebellar granule cells (CGC) can be induced into apoptosis by the addition of a high concentration of cytosine arabinoside (AraC). It has been shown that this is a p53 dependent apoptosis. We have measured the antiapoptotic effect of some amino acids, amino esters, amino phosphonic acids, amino nitriles and amino tetrazoles using this system.
Cultures of CGC were obtained from 6-8 day old Wistar rat pups. Cultures were grown on glass in 35 mm petri dishes for three days and then used for experiments. Aliquots (20 ul) of drug solutions (AraC, anti-apoptotic drugs, drug vehicles) were added to the medium of the culture. 24 Hours later the cultures were fixed with FAM, and stained with bis-benzamide. Normal and apoptotic nuclei were counted to a total of 90-120 cells per culture.

[2] = overall over 10^−6, 10^−9, 10^−12 M

melting point	SMILES	Rescue by Amino Nitriles in the CGC Assay, 10^−9 M ([1]; compound 10^−9 M, AraC 300 uM-induced apoptosis, 24 hours)	Rescue by Amino Nitriles in the CGC Assay, 10^−12 M ([1]; compound 10^−12 M, AraC 300 uM-induced apoptosis, 24 hours)	Rescue by Amino Nitriles in the CGC Assay, Rescue (overall yes/no) [1, 2]	Rescue by Amino Acids and Esters in the CGC Assay, Rescue (overall yes/no) [1, 2]
140 °C	CCCCC[C@H](C)NCC#N.Cl [S-2-Heptyl (Acetonitriles), (S)-2-(2-Heptylamino)acetonitrile hydrochloride]	R	R	yes	–
56 to 58 °C	CCCCC[C@H](C)NCCC(=O)O.Cl [S-2-Heptyl (B-Alanines), (S)-3-(2-Heptylamino)propionic acid hydrochloride]	–	–	–	no
133 to 134 °C	CCCCC[C@H](C)NCCC#N.Cl [S-2-heptyl (Propionitriles), (S)-3-(2-Heptylamino)propionitrile hydrochloride]	–	–	no	–
199 to 200 °C	CCC(C)(C)NCCC#N.Cl [tert-Amyl (Propionitriles), 3-(t-Amylamino)propionitrile hydrochloride]	–	–	no	–
